Data on one compound can be found in patent publication US10947229B2, “Dimethyl amino azetidine amides as JAK inhibitors” (THERAVANCE BIOPHARMA R&D IP, LLC, priority 2018, dated 2021).

The test system of data set [1] is IL-27 induced CXCL10 secretion. The experiment in a line: Inhibition of IL-27 induced CXCL10 in human 3D airway cultures. It is filed as cell-based. Particulars: 192 h, 8 days, 4 donors. The method, then:
EpiAirway tissue cultures were obtained from Mattek (AIR-100). Cultures were derived from asthmatic donors. In a cell culture insert, human derived tracheal/bronchial epithelial cells were grown and differentiated on a porous membrane support, allowing an air-liquid interface with warmed culture medium below the cells and a gaseous test atmosphere above. Tissues were cultured in maintenance media ([…]) in a 37° C., 5% CO2 humidified incubator. Four donors were tested. On Day 0, tissue cultures were treated with test compounds in liquid interface at 10 μM, 1 μM and/or 0.1 μM. Compounds were diluted in dimethyl sulfoxide (DMSO, Sigma) to a final concentration of 0.1%. DMSO at 0.1% was used as a vehicle control. […] Tissue cultures were maintained for 8 days. Media was replaced every 2 days with fresh media containing compounds and IFNγ or IL-27. On Day 8, tissue cultures and supernatants were collected for analysis. Supernatant samples were assayed for CXCL10 (IP-10) and CXCL9 (MIG) using luminex analysis (EMD Millipore). Data is expressed as % Inhibition+/-standard deviation (±STDV). Percent inhibition was determined by compound inhibitory potency against IFNγ or IL-27 induced CXCL10 or CXCL9 secretion compared to vehicle treated cells. Data is the average from 4 donors.

In data set [2] the test system is GM-CSF stimulated STAT5 phosphorylation in CD14+ monocytes. The experiment in a line: Cellular JAK potency assay: inhibition of GM-CSF-induced pSTAT5. The format is cell-based. Particulars: Monocyte; CD14+ monocytes from human whole blood; read-out: pIC50, inhibition of GM-CSF-induced pSTAT5 (converted). The method, then: The potency of test compounds for inhibition of granulocyte-macropage colony-stimulating factor (GM-CSF) stimulated STAT5 phosphorylation was measured in CD14-positive (CD14+) monocytes derived from human whole blood (Stanford Blood Center) using flow cytometry. Because GM-CSF signals through JAK, this assay provides a measure of JAK cellular potency. Monocytes were identified using a fluorescein isothiocyanate (FITC) conjugated anti-CD14 antibody (Clone RM052, Beckman Coulter), and an Alexa Fluor 647 conjugated anti-pSTAT5 antibody (pY694, BD Biosciences) was used to detect STAT5 phosphorylation. Human peripheral blood mononuclear cells (PBMC) were isolated from human whole blood of healthy donors using a ficoll gradient. […] Cells were washed twice with FACS buffer, and then re-suspended in 1:10 […] Alexa Fluor 647:FACS buffer (100 μL) for 30 min at RT in the dark, washed twice in FACS buffer, and analyzed using a MACSQuant flow cytometer (Miltenyi). To determine the inhibitory potency of the test compound, the median fluorescent intensity (MFI) of pSTAT5 was measured in CD14+ monocytes. IC50 values were determined from analysis of the inhibition curves of MFI vs compound concentration. Data are expressed as pIC50 (negative decadic logarithm IC50) values.

Data set [3] has as its system spontaneous IL-6 secretion. The experiment in a line: Inhibition of spontaneous IL-6 secretion in human 3D airway cultures from asthmatic donors. The format is cell-based. The conditions noted are these: 192 h, 8 days, 3 or 4 donors. The method, then:
EpiAirway tissue cultures were obtained from Mattek (AIR-100). Cells were derived from asthmatic donors that spontaneously secrete periostin, a matricellular protein associated with Th2 mediated asthma (eosinophilic), and interleukin-6 (IL-6), an inflammatory cytokine that plays a role in both Th2 and non-Th2 related asthma. In a cell culture insert, human derived tracheal/bronchial epithelial cells were grown and differentiated on a porous membrane support, allowing an air-liquid interface with warmed culture medium below the cells and a gaseous test atmosphere above. Tissues were cultured in maintenance media ([…]) in a 37° C., 5% CO2 humidified incubator. Four donors were tested. On Day 0, tissue cultures were treated with test compounds in liquid interface at 10 μM, 1 μM and/or 0.1 μM. Compounds were diluted in dimethyl sulfoxide (DMSO, Sigma) to a final concentration of 0.1%. DMSO at 0.1% was used as a vehicle control. Tissue cultures were maintained for 8 days. Media was replaced every 2 days with fresh media containing compounds. On Day 8, supernatants were collected for analysis. Supernatant samples were assayed for periostin and interleukin-6 (IL-6) using luminex analysis (EMD Millipore). Data is expressed as % Inhibition+/-standard deviation (±STDV). Percent inhibition was determined by compound inhibitory potency against spontaneous secretion of periostin and IL-6 compared to vehicle treated cells. Data is the average from 3 or 4 donors.

Data set [4] in a line: Pharmacokinetics in plasma and lung in mouse. The format is in vivo. The conditions noted are these: single oral aspiration, 0.2 mg/mL, 50 μL. The method, then: Plasma and lung concentrations of test compounds and ratios thereof were determined in the following manner. BALB/c mice from Charles River Laboratories were used in the assay. Test compounds were individually formulated in 20% propylene glycol in pH 4 citrate buffer at a concentration of 0.2 mg/mL and 50 μL of the dosing solution was introduced into the trachea of a mouse by oral aspiration. At various time points (typically 0.167, 2, 6, 24 hr) post dosing, blood samples were removed via cardiac puncture and intact lungs were excised from the mice.

Regarding `CCc1cc(O)ccc1-c1ccc2c(-c3nc4c([nH]3)CN(C(C)C)[C@H](C(=O)N3CC(N(C)C)C3)C4)n[nH]c2c1` [Compound 1, (S)-(3-(dimethylamino)azetidin-1-yl)(2-(6-(2-ethyl-4-hydroxyphenyl)-1H-indazol-3-yl)-5-isopropyl-4,5,6,7-tetrahydro-3H-imidazo[4,5-c]pyridin-6-yl)methanone], the inhibition at 0.1 µM in data set [1] (0.1 μM) amounted to 25%; in data set [3] (0.1 μM), 10%. Moreover, the inhibition at 1 µM in data set [1] (1 μM) is 98%; in data set [3] (1 μM), 70%. Besides, the inhibition at 10 µM stood at 100% in data set [1] (10 μM) and 91% in data set [3] (10 μM). Further, the IC50 in data set [2] was 126 nM. In addition, in data set [4] (BALB/c, in vivo, 10 µg/animal, read-out: Plasma AUC(0-24)), the AUC(0-t) stood at 943 ng·h/mL. Further, the “Lung Tissue AUC(0-24)” value in data set [4] was found to be 54.5 µg·h/g.
